Results on one molecule are retold here after US20050239715A1, “Inhibition of allergic contact dermatitis by N-L-alpha-aspartyl-L-phenylalanine 1-methyl ester” (priority 2004, published 2005).

In series [1] the test system is Urushiol-Induced Dermatitis on Human Skin. The series is described as follows: Example 3: treatment and prevention of urushiol-induced dermatitis on human skin (Patient 1). Particulars: topical lotion 0.5 to 1 mg APM/ml, two to three times per day, also two packets Equal by mouth. It is filed as in vivo. As for the experimental part: The goats frequently consumed and were in contact with both poison sumac and poison ivy abundant in their enclosure without experiencing symptoms.
A topical APM preparation was made by mixing 2 to 3 packets of Equal® brand sweetner (80-120 mg of APM) with approximately 170 ml (5.5 fluid ounces) of lotion containing Vaseline® Intensive Care® Water Resistant Moisturizing Lotion (Unilever United States, Inc.), resulting in a lotion with 0.5 to 1 mg APM/ml. Patient 1 had previously used the lotion base without effect. Patient 1 also took two packets of Equal® brand sweetener by mouth in response to a symptom of diarrhea, a condition known to be associated with urishiol.
A soap and water scrub of the affected area was done one hour after application of the cream, and the affected area allowed to air dry.
Additional affected areas were then discovered on Patient 1, and a lotion was prepared for Patient 1 to use on these areas as well as unaffected areas that could come in contact with poison ivy during their work. Patient 1 used additional topical APM preparation approximately two to three times per day.

Series [2] concerns capsaicin taste receptor (heat and irritation of the tongue). In words: Oral application of APM with capsaicin-containing red pepper sauce. It counts as in vivo. The text has this:
The variability in observable results in preventing dermatitis or topical irritation appear related to the amount of APM that is applied, the time and order of the therapeutic application, and the presence of receptors to which either the irritant oil or APM may bind.

The conditions of series [3]: cited from earlier work.
Series [4] relates to capsaicin burning and pain of mucosa. The series is described as follows: Example 8: APM after inadvertent mucosal contact with capsaicin cream. As to conditions: preparation of 38 mg APM per 5 ml applied to affected area. It is filed as in vivo, human. As for the experimental part:
A patient is treated for arthritis with a capsaicin cream applied twice daily to the affected joint. Capsaicin is absorbed by the transdermal tissue and then transported to joint area. After an appropriate interval, for instance 2-5 days, significant reduction in swelling, heat, redness, and pain is observed. However, the patient also inadvertently contacts his or her urethra, periurethra tissues, vaginal mucosa, rectal mucosa, eyes, or nose with the capsaicin cream, resulting in a sensation of burning and pain in the affected area.

For series [5], the system named is capsaicin burning of the eye. The series is described as follows: Example 7: capsaicin burning of the eye. It counts as in vivo, human. Particulars: about 10 mg per 250 microliters in sterile saline applied to eye. As for the experimental part: A kitchen worker is exposed to capsaicin oil from peppers during cooking preparation, the oil is transferred to their hands and then, by their hands, to their eyes, resulting in a burning sensation and pain. […] The application may be repeated in 15 min because tearing may dilute or wash away the active ingredients.

For series [6], the system named is Urushiol-Induced Dermatitis on Human Skin. The series is described as follows: Example 2: prevention of urushiol-induced dermatitis on human skin. It is filed as in vivo. As to conditions: thin film of APM suspended in petroleum cream base applied before exposure. The text has this:
To an area of skin which may be exposed to urushiol is applied a thin film of APM suspended in a petroleum cream base.

The test system of series [7] is allergic contact dermatitis, skin previously exposed to urushiol. In words: Example 1: treatment of allergic contact dermatitis with APM in a cream base. It counts as in vivo. Particulars: thin film of APM in cream base, after sixty (60) minutes. The text has this: To an area of skin previously exposed to urushiol is applied a thin film of APM in a cream base. […] Further treatment may include washing the affected area to remove and displace urushiol dissolved in the applied lotion and followed by reapplication of APM containing cream or lotion.

For series [8], the system named is human rash secondary to urushiol exposure. The series is described as follows: Example 4: treatment of rash caused by urushiol. It is filed as in vivo. How it is done: A human rash, with itching, in progress secondary to contact with an animal known to have had significant exposure to urushiol substances was arrested in 8 hours with 2 applications of aspartame in a Vaseline Intensive Care Lotion base (about 1.2 to 10 mg/ml). The itching ceased, and discomfort and irritation resolved within 8 hours.

SMILES strings stand for the structures. Residues, ends and D or L forms follow the SMILES beside them.

With `COC(=O)[C@H](Cc1ccccc1)NC(=O)[C@@H](N)CC(=O)O` [APM, N-L-alpha-aspartyl-L-phenylalanine 1-methyl ester] (H-Asp-Phe-OMe), the “rash or reaction observed on the day after application” value in series [1] is “no rash or reaction had occurred”. In addition, the “perception of spiciness of red pepper sauce” value in series [2] (APM applied orally before red pepper sauce) is reported as “absence of recognition of the spicyness”. Moreover, in series [2] (long exposure with secondary effects), the “APM response after long duration of exposure to capsaicin” value was “not as strong nor as quick”. The “response when APM is applied after sensations of heat and irritation developed” value in series [2] (red pepper sauce applied to tongue first, APM after) was “manifested and recognized quickly”. Moreover, the “pH at which cyclisation with formation of diketopiperazine occurs in APM solutions” value in series [3] is reported as “greater than 5”. Also, in series [4], the “burning and pain of affected area” value was “reducing or eliminating the burning and pain”. The “burning sensation of the eye” value in series [5] was “alleviated”. Also, the “symptoms of allergic contact dermatitis” value is recorded as “either do not appear or are significantly reduced” in series [6] and “significantly reduced” in series [7]. In addition, in series [8] (2 applications in Vaseline Intensive Care Lotion base, about 1.2 to 10 mg/ml), the “time in which rash with itching was arrested” value was 8 h. The “time in which itching ceased and discomfort and irritation resolved” value in series [8] (2 applications in lotion base, about 1.2 to 10 mg/ml) is at most 8 h. Moreover, in series [8] (overnight after 2 applications in lotion base), the “state of rash overnight” value is given as “the rash was gone”.
